Patent US20230278972A1, “SUBSTITUTED HALOALKYL SULFONANILIDE HERBICIDES” (FMC Corporation, priority 2020, published 2023)

What was measured:
Assay type in all cases: in vivo
[1] = tested on: Ryegrass, Italian (Italian ryegrass, Lolium multiflorum); test: Test A postemergence, Ryegrass, Italian; conditions: Postemergence, 0 to 100 scale (0 no effect, 100 complete control)
Method in brief: (§1)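 Directed soil spray at planting gave the preemergence treatment, while foliar application to one- to two-leaf seedlings (2–10 cm) gave the postemergence one; pots held a loam and sand mixture and chemicals were carried in a non-phytotoxic solvent with surfactant.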

[2] = tested on: Foxtail, Giant (giant foxtail, Setaria faberi); test: Test A postemergence, Foxtail, Giant; conditions: Postemergence, 0 to 100 scale (0 no effect, 100 complete control)
Method in brief: as §1

[3] = tested on: galium (catchweed bedstraw, Galium aparine); test: Test A postemergence, galium; conditions: Postemergence, 0 to 100 scale (0 no effect, 100 complete control)
Method in brief: (§2)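 Preemergence: seeded pots of loam plus sand received a directed soil spray. Postemergence: seedlings at one to two leaves, 2 to 10 cm high, were oversprayed. Each compound was formulated in a non-phytotoxic solvent mix that included a surfactant.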

[4] = tested on: Ryegrass, Italian (Italian ryegrass, Lolium multiflorum); test: Test A preemergence, Ryegrass, Italian; conditions: Preemergence; for Plant response rating, Ryegrass, Italian: 0 to 100 scale (0 no effect, 100 complete control); for Ryegrass, Italian plant response rating: 125 g ai/ha, visual injury on 0 to 100 scale (0 no effect, 100 complete control), approximately 10 days
Method in brief: as §1

[5] = tested on: barnyardgrass (Echinochloa crus-galli); test: Test A postemergence, barnyardgrass; conditions: Postemergence, 0 to 100 scale (0 no effect, 100 complete control)
Method in brief: as §2

corn (Zea mays) = test: Test A postemergence, corn; conditions: Postemergence, 0 to 100 scale (0 no effect, 100 complete control)
Method in brief: as §1

[6] = tested on: wheat (Triticum aestivum); test: Test A postemergence, wheat; conditions: Postemergence, 0 to 100 scale (0 no effect, 100 complete control)
Method in brief: as §2

[7] = tested on: barnyardgrass (Echinochloa crus-galli); test: Test A preemergence, barnyardgrass; conditions: Preemergence; for Plant response rating, Barnyardgrass: 0 to 100 scale (0 no effect, 100 complete control); for Barnyardgrass plant response rating: 125 g ai/ha, visual injury on 0 to 100 scale (0 no effect, 100 complete control), approximately 10 days
Method in brief: as §1

[8] = tested on: ragweed (common ragweed, Ambrosia artemisiifolia); test: Test A postemergence, ragweed; conditions: Postemergence, 0 to 100 scale (0 no effect, 100 complete control)
Method in brief: as §1

[9] = tested on: ragweed (common ragweed, Ambrosia artemisiifolia); test: Test A preemergence, ragweed; conditions: Preemergence; for Plant response rating, Ragweed: 0 to 100 scale (0 no effect, 100 complete control); for Ragweed plant response rating: 125 g ai/ha, visual injury on 0 to 100 scale (0 no effect, 100 complete control), approximately 10 days
Method in brief: as §1

[10] = tested on: pigweed (Amaranthus retroflexus); test: Test A preemergence, pigweed; conditions: for Plant response rating, Pigweed: 0 to 100 scale (0 no effect, 100 complete control); for Pigweed plant response rating: 125 g ai/ha, visual injury on 0 to 100 scale (0 no effect, 100 complete control), approximately 10 days
Method in brief: as §2

[11] = tested on: blackgrass (Alopecurus myosuroides); test: Test A postemergence, blackgrass; conditions: Postemergence, 0 to 100 scale (0 no effect, 100 complete control)
Method in brief: as §1

kochia (Bassia scoparia) [12] = test: Test A postemergence, kochia; conditions: Postemergence, 0 to 100 scale (0 no effect, 100 complete control)
Method in brief: as §1

kochia (Bassia scoparia) [13] = test: Test A preemergence, kochia; conditions: Preemergence; for Plant response rating, Kochia: 0 to 100 scale (0 no effect, 100 complete control); for Kochia plant response rating: 125 g ai/ha, visual injury on 0 to 100 scale (0 no effect, 100 complete control), approximately 10 days
Method in brief: as §1

[14] = tested on: Foxtail, Giant (giant foxtail, Setaria faberi); test: Test A preemergence, Foxtail, Giant; conditions: Preemergence; for Plant response rating, Foxtail, Giant: 0 to 100 scale (0 no effect, 100 complete control); for Foxtail, Giant plant response rating: 125 g ai/ha, visual injury on 0 to 100 scale (0 no effect, 100 complete control), approximately 10 days
Method in brief: as §1

[15] = tested on: pigweed (Amaranthus retroflexus); test: Test A postemergence, pigweed; conditions: Postemergence, 0 to 100 scale (0 no effect, 100 complete control)
Method in brief: as §1

[16] = 125 g ai/ha, visual injury approx. 10 days
[17] = 31 g ai/ha, visual injury, approx. 10 days
[18] = 1000 g ai/ha, visual injury, approx. 10 days
[19] = 500 g ai/ha, visual injury vs untreated controls after approx. 10 days

CO[C@@H]1CCCN(C(=O)c2cc(N(S(=O)(=O)C(F)(F)F)S(=O)(=O)C(F)(F)F)c(C)cc2C)C1 [Compound 95]
Plant response rating, Ryegrass, Italian ([1]; 31 g ai/ha): 0 | Plant response rating, Ryegrass, Italian [1, 16]: 0 | Plant response rating, Foxtail, Giant ([2]; 31 g ai/ha): 0 | Plant response rating, Foxtail, Giant [2, 16]: 0 | Plant response rating, Galium ([3]; 31 g ai/ha): 40 | Plant response rating, Galium [3, 16]: 80 | Plant response rating, Ryegrass, Italian [4, 17]: 20 | Ryegrass, Italian plant response rating [4]: 90 | Plant response rating, Barnyardgrass ([5]; 31 g ai/ha): 0 | Plant response rating, Barnyardgrass [5, 16]: 30 | Plant response rating, Corn (corn (Zea mays); 31 g ai/ha): 0 | Plant response rating, Corn (corn (Zea mays); [16]): 20 | Plant response rating, Wheat ([6]; 31 g ai/ha): 0 | Plant response rating, Wheat [6, 16]: 10 | Plant response rating, Barnyardgrass [7, 17]: 10 | Barnyardgrass plant response rating [7]: 80 | Plant response rating, Ragweed ([8]; 31 g ai/ha): 0 | Plant response rating, Ragweed [8, 16]: 0 | Plant response rating, Ragweed [9, 17]: 0 | Ragweed plant response rating [9]: 60 | Plant response rating, Pigweed [10, 17]: 70 | Pigweed plant response rating [10]: 90 | Plant response rating, Blackgrass ([11]; 31 g ai/ha): 0 | Plant response rating, Blackgrass [11, 16]: 0 | Plant response rating, Kochia (kochia (Bassia scoparia) [12]; 31 g ai/ha): 10 | Plant response rating, Kochia (kochia (Bassia scoparia) [12]; [16]): 30 | Plant response rating, Kochia (kochia (Bassia scoparia) [13]; [17]): 0 | Kochia plant response rating (kochia (Bassia scoparia) [13]): 10 | Plant response rating, Foxtail, Giant [14, 17]: 90 | Foxtail, Giant plant response rating [14]: 100 | Plant response rating, Pigweed ([15]; 31 g ai/ha): 40 | Plant response rating, Pigweed [15, 16]: 80

Cc1cc(C)c(C(=O)N2CCC(C(C)(C)C)CC2)cc1NS(=O)(=O)C(F)(F)F [Compound 261]
Plant response rating, Ryegrass, Italian [1, 18]: 20 | Plant response rating, Foxtail, Giant [2, 18]: 0 | Plant response rating, Galium [3, 18]: 50 | Plant response rating, Ryegrass, Italian ([4]; 1000 g ai/ha): 60 | Plant response rating, Barnyardgrass [5, 18]: 0 | Plant response rating, Corn (corn (Zea mays); [18]): 10 | Plant response rating, Wheat [6, 18]: 0 | Plant response rating, Barnyardgrass ([7]; 1000 g ai/ha): 60 | Plant response rating, Ragweed [8, 18]: 0 | Plant response rating, Ragweed ([9]; 1000 g ai/ha): 0 | Plant response rating, Pigweed ([10]; 1000 g ai/ha): 20 | Plant response rating, Blackgrass [11, 18]: 0 | Plant response rating, Kochia (kochia (Bassia scoparia) [12]; [18]): 0 | Plant response rating, Kochia (kochia (Bassia scoparia) [13]; 1000 g ai/ha): 0 | Plant response rating, Foxtail, Giant ([14]; 1000 g ai/ha): 90 | Plant response rating, Pigweed [15, 18]: 30

Cc1cc(C)c(C2=NOC3(C2)CC(C)(C)CC(C)(C)C3)cc1NS(=O)(=O)C(F)(F)F [Compound 122]
Plant response rating, Ryegrass, Italian [1, 16]: 0 | Ryegrass, Italian plant response rating [1, 19]: 0 | Plant response rating, Foxtail, Giant [2, 16]: 0 | Foxtail, Giant plant response rating [2, 19]: 20 | Plant response rating, Galium [3, 16]: 60 | Galium plant response rating [3, 19]: 90 | Ryegrass, Italian plant response rating [4]: 30 | Plant response rating, Ryegrass, Italian ([4]; 500 g ai/ha): 80 | Plant response rating, Barnyardgrass [5, 16]: 10 | Barnyardgrass plant response rating [5, 19]: 70 | Plant response rating, Corn (corn (Zea mays); [16]): 0 | Corn plant response rating (corn (Zea mays); [19]): 0 | Plant response rating, Wheat [6, 16]: 0 | Wheat plant response rating [6, 19]: 0 | Barnyardgrass plant response rating [7]: 0 | Plant response rating, Barnyardgrass ([7]; 500 g ai/ha): 70 | Plant response rating, Ragweed [8, 16]: 0 | Ragweed plant response rating [8, 19]: 0 | Ragweed plant response rating [9]: 0 | Plant response rating, Ragweed ([9]; 500 g ai/ha): 0 | Pigweed plant response rating [10]: 0 | Plant response rating, Pigweed ([10]; 500 g ai/ha): 30 | Plant response rating, Blackgrass [11, 16]: 0 | Blackgrass plant response rating [11, 19]: 10 | Plant response rating, Kochia (kochia (Bassia scoparia) [12]; [16]): 0 | Kochia plant response rating (kochia (Bassia scoparia) [12]; [19]): 10 | Kochia plant response rating (kochia (Bassia scoparia) [13]): 70 | Plant response rating, Kochia (kochia (Bassia scoparia) [13]; 500 g ai/ha): 30 | Foxtail, Giant plant response rating [14]: 50 | Plant response rating, Foxtail, Giant ([14]; 500 g ai/ha): 100 | Plant response rating, Pigweed [15, 16]: 20 | Pigweed plant response rating [15, 19]: 50
